Biological target: T1, oxysterol-binding protein (OSBP) (Homo sapiens, UniProt P22059)
T1 sequence (P22059 2-807): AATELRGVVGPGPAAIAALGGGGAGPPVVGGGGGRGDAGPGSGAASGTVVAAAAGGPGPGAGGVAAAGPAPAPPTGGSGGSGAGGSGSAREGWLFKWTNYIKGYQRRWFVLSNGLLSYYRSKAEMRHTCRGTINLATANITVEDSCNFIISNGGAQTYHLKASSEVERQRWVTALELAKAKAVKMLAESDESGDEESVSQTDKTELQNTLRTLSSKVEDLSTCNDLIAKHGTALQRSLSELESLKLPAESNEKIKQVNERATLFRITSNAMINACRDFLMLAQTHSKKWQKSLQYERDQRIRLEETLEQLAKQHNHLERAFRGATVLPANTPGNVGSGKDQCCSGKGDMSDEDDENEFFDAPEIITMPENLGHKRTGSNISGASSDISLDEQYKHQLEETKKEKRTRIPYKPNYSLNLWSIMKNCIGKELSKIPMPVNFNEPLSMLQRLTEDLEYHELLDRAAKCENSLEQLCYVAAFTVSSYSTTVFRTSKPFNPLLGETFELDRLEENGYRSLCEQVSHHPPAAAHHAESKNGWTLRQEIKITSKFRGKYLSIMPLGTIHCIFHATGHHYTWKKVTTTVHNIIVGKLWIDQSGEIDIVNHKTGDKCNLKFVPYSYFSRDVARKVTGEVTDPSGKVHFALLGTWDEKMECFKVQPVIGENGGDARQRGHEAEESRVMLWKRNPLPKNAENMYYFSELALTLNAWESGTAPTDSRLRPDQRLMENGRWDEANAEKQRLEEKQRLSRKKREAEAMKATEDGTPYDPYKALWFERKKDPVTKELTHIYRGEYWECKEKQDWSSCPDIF
Experiment: MicroScale Thermophoresis with purified GFP-OSBP

SMILES: CCC(C)n1ncn(-c2ccc(N3CCN(c4ccc(OCC5COC(Cn6cncn6)(c6ccc(Cl)cc6Cl)O5)cc4)CC3)cc2)c1=O (stereo not shown) [ITZ, itraconazole]
- Kd: ~0.43 µM
